Data as given in patent US20100234400A1, “COMPOUNDS THAT MAINTAIN PLURIPOTENCY OF EMBRYONIC STEM CELLS” (IRM LLC, priority 2005, published 2010).

Tested on: Mouse embryonic stem cells
Assay: Mouse ES cells keep pluripotency under differentiation medium (DM)
Type: cell-based
Conditions: Embryonic stem cell, 144 h, measured by maintenance of GFP expression and colony morphology, differentiation medium (BM+0.3 μM RA or DMEM, 20% FBS), 3 + 3 days incubation
Excerpt: Materials used for ES cell maintenance, and examples 4 & 5, infra, include: Oct4-GFP mES cells (feeder layer dependent cells); mES R1 cells (feeder layer independent cells); DMEM (GIBCO, 11965-084); Kouckout DMEM (KO DMEM) (GIBCO, 10829-018); DMEM/F12 (GIBCO, 11330-032); Fetal Bovine Serum (FBS) (GIBCO, 26140-079); Knockout Serum Replacer (KO-SR), (GIBCO, 10828-028); B-27 Serum-free Supplement (50X), (GIBCO017504-044); N-2 Supplement (100X) (GIBCO, 17502-048); LIF (10^6 units) (Chemicon, ESG1106); L-Glutamine (GIBCO, 25030-081); Non-essential amino acids (GIBCO, 11140-050); 2-Mercaptoethanol (1000X), (GIBCO, 21985-023); 0.05% Trypsin-EDTA (GIBCO, 25300-054); 0.1% gelatin solution (Stemcell tech., 07903); Basal medium (BM): KO DMEM, 15% KO-SR, 1X L-glutamine, 1X non-essential amino acid, 1×2-mercaptoethanol; and Growth medium (GM): Basal medium+10^3 unit LIF.
DM induced by retinoic acid (RA): BM+0.3 μM RA, DM induced by FBS: DMEM, 20% FBS. Ninety-six well plates are coated with 0.1% gelatin solution at 37° C. overnight. The gelatin solution is removed by aspiration. Mouse embryonic stem cells are plated on gelatin-coated plates at 10^4 cells/50 μl GM/well. After overnight incubation, the medium is changed to DM and 3 μM of a compound of the invention is added to each well. After 3 days incubation, the medium is replaced with fresh medium and compound. After a further 3 days, the cells are fixed and assayed with pluripotent markers expression and colony morphology. An effective concentration is measured by the maintenance of GFP expression and colony morphology. A list of effective concentrations for various compounds of the invention is disclosed in table 3, infra

Structure (SMILES) | minimal effective concentration
Cc1ccc(NC(=O)c2cccc(C(F)(F)F)c2)cc1N1Cc2cnc(Nc3cccc(N)c3)nc2N(C)C1=O [N-{3-[7-(3-Amino-phenylamino)-1-methyl-2-oxo-1,4-dihydro-2H-pyrimido[4,5-d]pyrimidin-3-yl]-4-methyl-phenyl}-3-trifluoromethyl-benzamide] | 2 µM
Cc1ccc(NC(=O)c2cccc(C(F)(F)F)c2)cc1N1Cc2cnc(Nc3cccc(NS(C)(=O)=O)c3)nc2N(C)C1=O [N-{3-[7-(3-Methanesulfonylamino-phenylamino)-1-methyl-2-oxo-1,4-dihydro-2H-pyrimido[4,5-d]pyrimidin-3-yl]-4-methyl-phenyl}-3-trifluoromethyl-benzamide] | 2 µM
Cc1ccc(NC(=O)c2cccc(C(F)(F)F)c2)cc1N1Cc2cnc(Nc3ccnn3C)nc2N(C)C1=O [N-{4-Methyl-3-[1-methyl-7-(2-methyl-2H-pyrazol-3-ylamino)-2-oxo-1,4-dihydro-2H-pyrimido[4,5-d]pyrimidin-3-yl]-phenyl}-3-trifluoromethyl-benzamide] | 1 µM
CCNc1ncc2c(n1)N(C)C(=O)N(c1cc(NC(=O)c3cccc(C(F)(F)F)c3)ccc1C)C2 [N-[3-(7-Ethylamino-1-methyl-2-oxo-1,4-dihydro-2H-pyrimido[4,5-d]pyrimidin-3-yl)-4-methyl-phenyl]-3-trifluoromethyl-benzamide] | 10 µM
Cc1cc(Nc2ncc3c(n2)N(C)C(=O)N(c2cc(NC(=O)c4cccc(C(F)(F)F)c4)ccc2C)C3)n(C)n1 [N-{3-[7-(2,5-Dimethyl-2H-pyrazol-3-ylamino)-1-methyl-2-oxo-1,4-dihydro-2H-pyrimido[4,5-d]pyrimidin-3-yl]-4-methyl-phenyl}-3-trifluoromethyl-benzamide] | 1 µM
CNc1ncc2c(n1)N(C)C(=O)N(c1cc(NC(=O)c3cccc(C(F)(F)F)c3)ccc1C)C2 [N-[4-Methyl-3-(1-methyl-7-methylamino-2-oxo-1,4-dihydro-2H-pyrimido[4,5-d]pyrimidin-3-yl)-phenyl]-3-trifluoromethyl-benzamide] | 3 µM
CCn1nccc1Nc1ncc2c(n1)N(C)C(=O)N(c1cc(NC(=O)c3cccc(C(F)(F)F)c3)ccc1C)C2 [N-{3-[7-(2-Ethyl-2H-pyrazol-3-ylamino)-1-methyl-2-oxo-1,4-dihydro-2H-pyrimido[4,5-d]pyrimidin-3-yl]-4-methyl-phenyl}-3-trifluoromethyl-benzamide] | 2 µM
Cc1ccc(NC(=O)c2cccc(C(F)(F)F)c2)cc1N1Cc2cnc(Nc3cccc(O)c3)nc2N(C)C1=O [N-{3-[7-(3-Hydroxy-phenylamino)-1-methyl-2-oxo-1,4-dihydro-2H-pyrimido[4,5-d]pyrimidin-3-yl]-4-methyl-phenyl}-3-trifluoromethyl-benzamide] | 1 µM
Cc1cc(Nc2ncc3c(n2)N(C)C(=O)N(c2cc(NC(=O)c4cccc(C(F)(F)F)c4)ccc2C)C3)cc(C)n1 [N-{3-[7-(2,6-Dimethyl-pyridin-4-ylamino)-1-methyl-2-oxo-1,4-dihydro-2H-pyrimido[4,5-d]pyrimidin-3-yl]-4-methyl-phenyl}-3-trifluoromethyl-benzamide] | 5 µM
